These results are taken from patent US6291432A (Japan Energy Corporation, priority 1996, dated 2001).

Values after ≈ are worked out from the molar mass of the structure shown. Like-named read-outs stand apart in the source and are kept apart here.

In series [1] the target is T1, recombinant HIV-1 protease (Human immunodeficiency virus type 1 group M subtype B, UniProt P04585).
T1 construct: measured using a recombinant HIV-1 protease
In words: HIV protease inhibition activity (enzyme activity inhibition rate). As to conditions: for inhibition at 0.05 µM: read-out: Enzyme activity inhibition rate (%) (addition concentration of 50 nM). The series is classed as biochemical. On the procedure: The protease activity was measured using a recombinant HIV-1 protease (see Biochemistry, 250 (9)-264 (1990)) and a synthesized peptide substrate. The inhibition rate was calculated by determining a peptide fragment generated by cleavage between Tyr-Pro of the synthesized substrate after the reaction of 60 min at 37° C. using a reversed phase HPLC in the presence of the test compounds in various concentrations (see, for example, Japanese Patent Application Laid-open No. 170722/1993).
Examples of the evaluation results of the HIV protease inhibition activity of the tripeptide compound of the present invention by the above-described method is shown in Table 1. […] The concentration of the test compounds in Table 1 represents the final concentration in the reaction mixture.

For series [2], the target named is T1, recombinant HIV-1 protease. In words: Evaluation of enzyme inhibition constant Ki. The series is classed as biochemical. As to the method: The synthesized peptide substrate having a sequence of H-Lys-Ala-Arg-Val-Tyr-Phe (4-NO2)-Glu-Ala-Nle-NH2 (SEQ ID NO. 1) was used in this experiment. The enzyme reaction was measured using a reversed phase HPLC by determining the C-terminal peptide fraction produced by cleavage just behind Tyr in the synthesized substrate which is obtained by reacting the following composition for 15 min. at 37° C. and stopping the reaction by the addition of 1N HCl (75 μl).
Composition of reaction mixture
Recombinant HIV-1 protease enzyme solution 10 μl
0.5 mM synthetic substrate aqueous solution 10 μl
DMSO Inhibitor solution 5 μl
0.2 M MES solution 25 μl
(1 M NaCl, 2 mM EDTA-2Na, 2 mM DTT, pH 5.5)
Column: Waters Nova-pak C18 (3.9×75 mm)
Eluent: A; water (0.1% TFA)
B; acetonitrile (0.1% TFA)
Flow rate: 2 ml/min isocratic; 10% B solution
Detection: Fluorescence 305 nm, excitation 275 nm

In series [3] the test system is HIV virus strain HIV-1 IIIB. Description: Anti-HIV activity in HIV infected CEM-SS cells (XTT method). The series is classed as cell-based. The conditions noted are these: Human immunodeficiency virus 1, 144 h, HIV-1 IIIB infected CEM-SS cell, six days at 37° C. On the procedure:
(§1) EP 0751145 A2). On a 96-well micro titre plate, the test compounds were added to the culture medium in various concentrations, then the HIV infected CEM-SS cell was added and incubated for six days at 37° C. using a CO2 incubator. The number of the living cells was then measured by a XTT method. On the other hand, in order to examine the cytotoxicity of the test compounds, the test compounds were added in various concentrations and the HIV virus non-infected cell was incubated under similar conditions. As the reference group, the HIV infected CEM-SS cell was incubated without the addition of the test compounds. Moreover, the HIV virus non-infected cell was incubated without the addition of the test compound as the control group. The anti-virus activity was evaluated in a concentration in which the cytotoxic effect caused by the HIV infected virus in the above HIV infected cell group was inhibited 50 percent (EC50, 50% effective concentration), and the cytotoxicity was evaluated in a concentration in which the cytotoxic effect by the addition of the test compound in the HIV virus non-infected cell group occurred at 50 percent (TC50, 50% cytotoxic concentration) respectively.
Background: Formazan colour is commonly taken as a measure of viable cells.

The next series deals with CEM-SS cell. Description: Cytotoxicity in HIV virus non-infected CEM-SS cells (XTT method). The series is classed as cell-based. As to conditions: six days, highest concentration 1.0 μg/ml. As to the method: as §1
Setting [4] is: 50 nM final concentration of test compound, 60 min at 37° C.

The term Ki denotes the equilibrium dissociation constant of an inhibitor or competing ligand from its target. With `CC1(C)SCN(C(=O)[C@@H](O)[C@H](Cc2ccccc2)NC(=O)[C@H](CC(N)=O)NC(=O)OCc2ccccc2)[C@@H]1C(=O)NCc1ccccc1` [Example 1, (R)-N-benzyl-3-{(2S,3S)-3-[N-(benzyloxycarbonyl)-L-asparaginyl]amino-2-hydroxy-4-phenylbutanoyl}-5,5-dimethyl-1,3-thiazolidine-4-carboxamide], the inhibition at 0.05 µM in series [1] (setting [4]) was found to be 96%. In addition, in series [2], the Ki turned out to be 0.019 nM.

Take `Cc1ccccc1CNC(=O)[C@H]1N(C(=O)[C@@H](O)[C@H](Cc2ccccc2)NC(=O)[C@H](CC(N)=O)NC(=O)OCc2ccccc2)CSC1(C)C` [Example 3, (R)-N-(2-methylbenzyl)-3-{(2S,3S)-3-[N-(benzyloxycarbonyl)-L-asparaginyl]amino-2-hydroxy-4-phenylbutanoyl}-5,5-dimethyl-1,3-thiazolidine-4-carboxamide]: in series [1] (setting [4]), the inhibition at 0.05 µM was 100%. Also, the Ki in series [2] amounted to 0.016 nM.

As for `Cc1ccccc1CNC(=O)[C@H]1N(C(=O)[C@@H](O)[C@H](Cc2ccccc2)NC(=O)[C@H](CC(N)=O)NC(=O)c2cc(=O)c3ccccc3o2)CSC1(C)C` [Example 6, (R)-N-(2-methylbenzyl)-3-{(2S,3S)-3-[N-(2-chromonecarbonyl)-L-asparaginyl]amino-2-hydroxy-4-phenylbutanoyl}-5,5-dimethyl-1,3-thiazolidine-4-carboxamide], in series [1] (setting [4]), the “Enzyme activity inhibition rate (%) (addition concentration of 50 nM)” value came out at 98.4%. Moreover, in series [2] (reversible tight-binding inhibitor model, test compound 1-100 nM, 15 min at 37° C., pH 5.5, read-out: Enzyme inhibition constant Ki), the inhibition constant (Ki) is 0.0017 nM.

With `Cc1ccccc1CNC(=O)[C@H]1N(C(=O)[C@@H](O)[C@H](Cc2ccccc2)NC(=O)[C@H](CC(N)=O)NC(=O)c2cc3ccccc3o2)CSC1(C)C` [Example 7, (R)-N-(2-methylbenzyl)-3-{(2S,3S)-3-[N-(2-benzofurancarbonyl)-L-asparaginyl]amino-2-hydroxy-4-phenylbutanoyl}-5,5-dimethyl-1,3-thiazolidine-4-carboxamide], in series [1] (setting [4]), the inhibition at 0.05 µM is 91.2%. Also, the Ki in series [2] came to 0.0048 nM.

`CC[C@H](NC(=O)OC)C(=O)N[C@@H](Cc1ccccc1)[C@H](O)C(=O)N1CSC(C)(C)[C@H]1C(=O)NCc1ccccc1C` [Example 28, (R)-N-(2-methylbenzyl)-3-{(2S,3S)-2-hydroxy-3-[(S)-2-(methoxycarbonyl)aminobutanoyl]amino-4-phenylbutanoyl}-5,5-dimethyl-1,3-thiazolidine-4-carboxamide]: the inhibition at 0.05 µM in series [1] (setting [4]) was determined as 93.6%. In addition, in series [2], the Ki was 0.242 nM.

In the case of `COCC(=O)N[C@H](C(=O)N[C@@H](Cc1ccccc1)[C@H](O)C(=O)N1CSC(C)(C)[C@H]1C(=O)NCc1ccccc1C)C(C)C` [Example 31, (R)-N-(2-methylbenzyl)-3-{(2S,3S)-2-hydroxy-3-[(S)-2-(methoxyacetyl)amino-3-methylbutanoyl]amino-4-phenylbutanoyl}-5,5-dimethyl-1,3-thiazolidine-4-car boxamide], the inhibition at 0.05 µM in series [1] (setting [4]) came to 89.6%.

With `CCOCC(=O)N[C@H](C(=O)N[C@@H](Cc1ccccc1)[C@H](O)C(=O)N1CSC(C)(C)[C@H]1C(=O)NCc1ccccc1C)C(C)C` [Example 32, (R)-N-(2-methylbenzyl)-3-{(2S,3S)-2-hydroxy-3-[(S)-2-(ethoxyacetyl)amino-3-methylbutanoyl]amino-4-phenylbutanoyl}-5,5-dimethyl-1,3-thiazolidine-4-carb oxamide], the inhibition at 0.05 µM in series [1] came to 96.4%.

Regarding `CC(=O)N[C@H](C(=O)N[C@@H](Cc1ccccc1)[C@H](O)C(=O)N1CSC(C)(C)[C@H]1C(=O)NCc1ccccc1C)C(C)C` [Example 33, (R)-N-(2-methylbenzyl)-3-{(2S,3S)-2-hydroxy-3-[(S)-2-acetylamino-3-methylbutanoyl]amino-4-phenylbutanoyl}-5,5-dimethyl-1,3-thiazolidine-4-carboxamide], the inhibition at 0.05 µM in series [1] (setting [4]) was found to be 89.8%.

As for `CC[C@H](NC(C)=O)C(=O)N[C@@H](Cc1ccccc1)[C@H](O)C(=O)N1CSC(C)(C)[C@H]1C(=O)NCc1ccccc1C` [Example 34, (R)-N-(2-methylbenzyl)-3-{(2S,3S)-2-hydroxy-3-[(S)-2-acetylaminobutanoyl]amino-4-phenylbutanoyl}-5,5-dimethyl-1,3-thiazolidine-4-carboxamide], the inhibition at 0.05 µM in series [1] (setting [4]) stood at 88.9%.

Turning to `Cc1ccccc1CNC(=O)[C@H]1N(C(=O)[C@@H](O)[C@H](Cc2ccccc2)NC(=O)[C@@H](NS(C)(=O)=O)C(C)C)CSC1(C)C` [Example 37, (R)-N-(2-methylbenzyl)-3-{(2S,3S)-2-hydroxy-3-[(S)-2-methanesulfonylamino-3-methylbutanoyl]amino-4-phenylbutanoyl}-5,5-dimethyl-1,3-thiazolidine-4-car boxamide], in series [1] (setting [4]), the inhibition at 0.05 µM amounted to 70.1%.

For `CC[C@H](NS(C)(=O)=O)C(=O)N[C@@H](Cc1ccccc1)[C@H](O)C(=O)N1CSC(C)(C)[C@H]1C(=O)NCc1ccccc1C` [Example 38, (R)-N-(2-methylbenzyl)-3-{(2S,3S)-2-hydroxy-3-[(S)-2-methanesulfonylaminobutanoyl]amino-4-phenylbutanoyl}-5,5-dimethyl-1,3-thiazolidine-4-carboxamide], the inhibition at 0.05 µM in series [1] (setting [4]) was 76%.

For the compound `COC(=O)N[C@H](C(=O)N[C@@H](Cc1ccccc1)[C@H](O)C(=O)N1CSC(C)(C)[C@H]1C(=O)NCc1ccccc1C)[C@@H](C)O` [Example 39, (R)-N-(2-methylbenzyl)-3-{(2S,3S)-2-hydroxy-3-[N-(methoxycarbonyl)-L-threonyl]amino-4-phenylbutanoyl}-5,5-dimethyl-1,3-thiazolidine-4-carboxamide], in series [1] (setting [4]), the inhibition at 0.05 µM is 84.6%.

As for `COC(=O)N[C@@H](CC(N)=O)C(=O)N[C@@H](Cc1ccccc1)[C@H](O)C(=O)N1CSC(C)(C)[C@H]1C(=O)NCc1ccccc1C` [Example 40, (R)-N-(2-methylbenzyl)-3-{(2S,3S)-2-hydroxy-3-[N-(methoxycarbonyl)-L-asparaginyl]amino-4-phenylbutanoyl}-5,5-dimethyl-1,3-thiazolidine-4-carboxamide], the inhibition at 0.05 µM in series [1] (setting [4]) was 94.3%.

One may read the EC50 as the midpoint of the concentration-response curve. A high value points to lower potency in that assay. In series [3], `CC(C)c1nc(CN(C)C(=O)N[C@H](C(=O)N[C@@H](Cc2ccccc2)C[C@H](O)[C@H](Cc2ccccc2)NC(=O)OCc2cncs2)C(C)C)cs1` [Ritonavir, reference compound] returned a half-maximal effective concentration (EC50) of 0.033 µg/mL (≈ 0.0458 µM). In addition, the “Cytotoxicity TC50” value with CEM-SS cell is over 1.0 µg/mL.

In the case of `CC(C)(C)NC(=O)[C@H]1N(C(=O)[C@@H](O)[C@H](Cc2ccccc2)NC(=O)[C@H](CC(N)=O)NC(=O)OCc2ccccc2)CSC1(C)C` [reference compound], the Ki in series [2] is 0.212 nM.

In the case of “(R)-N-(2-methylbenzyl)-3-{(2S,3S)-3-[N-(3-benzylphenoxyacetyl)-L-valyl]amin o-2-hydroxy-4-phenylbutanoyl}-5,5-dimethyl-1,3-thiazolidine-4-carboxamide [Example 17]”, in series [1] (setting [4]), the “Enzyme activity inhibition rate (%) (addition concentration of 50 nM)” value was 97.1%.
